Laboratory results reported in ChEMBL document CHEMBL3301562, “MMV Box screening against Plasmodium falciparum protein kinases and aminoacyl tRNA synthetases”.

Experiments:
Type in all cases: functional
[1] = target: T1, Cdk-related protein kinase 6 (Plasmodium falciparum, UniProt O77239); test: Final concentrations were 1.5 uM ATP, 5 mM MnCl2, and 15 ug/ml PK6 in a buffer of 100 mM Tris-HCl (pH 7.5). 50 ug/mL MBP was provided as the substrate; 10 uM staurosporine was used as a control inhibitor. Incubation time was 3 hours and 40 minutes.The catalytic activity of each kinase was considered proportional to ATP consumed, as determined from measurements of residual [ATP] with the luciferase-based reagent Kinase-Glo (Promega) following incubation. Luminescence (proportional to residual [ATP]) was measured on the plate readers FLx800 (BioTek Instruments, Winooski, VT, USA) and MicroBeta2.
T1 sequence (O77239 whole entry): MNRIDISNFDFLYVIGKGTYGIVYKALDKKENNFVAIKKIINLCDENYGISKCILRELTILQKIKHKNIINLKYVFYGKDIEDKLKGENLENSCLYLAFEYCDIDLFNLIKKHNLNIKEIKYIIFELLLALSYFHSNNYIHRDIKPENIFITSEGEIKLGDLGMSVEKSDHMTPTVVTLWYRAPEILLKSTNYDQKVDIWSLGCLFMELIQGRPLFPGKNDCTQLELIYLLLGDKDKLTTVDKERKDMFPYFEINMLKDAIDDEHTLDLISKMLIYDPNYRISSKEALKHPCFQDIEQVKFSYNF

[2] = target: T2, Putative uncharacterized protein pk7 (Plasmodium falciparum, UniProt O96214); test: Final concentrations were 1 uM ATP, 2 mM DTT, 20 mM MgCl2, 2 mM MnCl2, 0.01% BSA, and 6 ug/ml PK7, in a buffer of 20 mM Tris-HCl (pH 7.5). The enzyme itself was the only substrate present (since autophosphorylation occurs); 100 uM 1NA-PP1 was used as a control inhibitor. Incubation time was 3 hours.
T2 sequence (O96214 whole entry): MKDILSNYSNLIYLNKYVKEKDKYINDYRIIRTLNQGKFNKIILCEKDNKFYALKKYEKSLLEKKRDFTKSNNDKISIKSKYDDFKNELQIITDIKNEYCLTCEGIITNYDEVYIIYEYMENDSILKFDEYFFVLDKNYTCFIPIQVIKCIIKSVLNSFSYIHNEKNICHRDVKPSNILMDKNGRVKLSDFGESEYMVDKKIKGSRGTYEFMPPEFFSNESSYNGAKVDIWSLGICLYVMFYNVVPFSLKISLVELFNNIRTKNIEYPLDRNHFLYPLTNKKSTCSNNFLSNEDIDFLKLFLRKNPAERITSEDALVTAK

[3] = target: T3, Mitogen-activated protein kinase (Plasmodium falciparum, UniProt Q25917); test: Final concentrations were 1 uM ATP, 0.5 mM DTT, 1 mM MgCl2, 0.5 mg/mL BSA, and 10 ug/ml MAP2 in a buffer of 50 mM HEPES (pH 7.0). 0.5 mg/mL histone III-S served as the substrate (13); 100 uM AMP-PNP, an ATP analog, was used as a control inhibitor. Incubation time was 4 hours.
T3 sequence (Q25917 whole entry): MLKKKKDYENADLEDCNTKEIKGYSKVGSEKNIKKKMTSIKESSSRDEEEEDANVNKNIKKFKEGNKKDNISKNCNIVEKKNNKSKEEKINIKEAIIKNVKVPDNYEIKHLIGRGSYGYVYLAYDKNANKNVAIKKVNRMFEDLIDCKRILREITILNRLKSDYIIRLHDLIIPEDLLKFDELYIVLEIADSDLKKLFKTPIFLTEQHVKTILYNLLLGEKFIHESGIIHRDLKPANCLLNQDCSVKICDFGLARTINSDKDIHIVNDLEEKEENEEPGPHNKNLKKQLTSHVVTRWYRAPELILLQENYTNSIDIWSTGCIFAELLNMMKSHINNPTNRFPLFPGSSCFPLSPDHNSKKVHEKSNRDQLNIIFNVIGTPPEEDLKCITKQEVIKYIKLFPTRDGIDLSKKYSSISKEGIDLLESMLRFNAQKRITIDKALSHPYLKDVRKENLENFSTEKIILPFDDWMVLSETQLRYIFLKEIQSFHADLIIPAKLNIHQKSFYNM

[4] = target: Calcium-dependent protein kinase 1 (Plasmodium falciparum, UniProt P62344); test: MMV: CDPK1 Protein kinase inhibition assay using recombinant PfCDPK1, syntide 2 peptide substrate, ATP and KinaseGlo to measure % inhibition at 1 uM MMV box compound.
[5] = target: T4, Calcium-dependent protein kinase 4 (Plasmodium falciparum (isolate 3D7), UniProt Q8IBS5); test: MMV: CDPK4 Protein kinase inhibition assay using recombinant PfCDPK4, syntide2 peptide substrate, ATP and KinaseGlo to measure % inhibition at 1 uM MMV box compound.
T4 sequence (Q8IBS5 whole entry): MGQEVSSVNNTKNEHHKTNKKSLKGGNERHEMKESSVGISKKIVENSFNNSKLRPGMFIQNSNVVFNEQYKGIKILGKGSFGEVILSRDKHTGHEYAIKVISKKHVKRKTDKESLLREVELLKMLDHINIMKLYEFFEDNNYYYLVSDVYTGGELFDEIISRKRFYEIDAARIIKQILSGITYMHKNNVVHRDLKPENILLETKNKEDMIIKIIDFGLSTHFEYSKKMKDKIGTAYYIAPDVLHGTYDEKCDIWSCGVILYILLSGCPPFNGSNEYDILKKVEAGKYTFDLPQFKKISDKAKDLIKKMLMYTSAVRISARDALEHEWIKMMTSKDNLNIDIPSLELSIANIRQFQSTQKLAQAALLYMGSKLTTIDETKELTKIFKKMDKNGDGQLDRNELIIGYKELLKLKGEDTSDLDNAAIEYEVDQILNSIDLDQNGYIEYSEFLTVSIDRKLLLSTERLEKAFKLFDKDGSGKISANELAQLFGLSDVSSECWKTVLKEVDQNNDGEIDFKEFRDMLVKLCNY

Proline--tRNA ligase = target: T5, Proline--tRNA ligase (Plasmodium falciparum (isolate 3D7), UniProt Q8I5R7); test: MMV: ProRS recombinant Plasmodium falciparum Prolyl-tRNA-synthetase, assay with yeast tRNA, ATP, and proline and 3 uM MMV malaria box compound, assay read out with kinase glo as % inhibition.
T5 sequence (Q8I5R7 whole entry): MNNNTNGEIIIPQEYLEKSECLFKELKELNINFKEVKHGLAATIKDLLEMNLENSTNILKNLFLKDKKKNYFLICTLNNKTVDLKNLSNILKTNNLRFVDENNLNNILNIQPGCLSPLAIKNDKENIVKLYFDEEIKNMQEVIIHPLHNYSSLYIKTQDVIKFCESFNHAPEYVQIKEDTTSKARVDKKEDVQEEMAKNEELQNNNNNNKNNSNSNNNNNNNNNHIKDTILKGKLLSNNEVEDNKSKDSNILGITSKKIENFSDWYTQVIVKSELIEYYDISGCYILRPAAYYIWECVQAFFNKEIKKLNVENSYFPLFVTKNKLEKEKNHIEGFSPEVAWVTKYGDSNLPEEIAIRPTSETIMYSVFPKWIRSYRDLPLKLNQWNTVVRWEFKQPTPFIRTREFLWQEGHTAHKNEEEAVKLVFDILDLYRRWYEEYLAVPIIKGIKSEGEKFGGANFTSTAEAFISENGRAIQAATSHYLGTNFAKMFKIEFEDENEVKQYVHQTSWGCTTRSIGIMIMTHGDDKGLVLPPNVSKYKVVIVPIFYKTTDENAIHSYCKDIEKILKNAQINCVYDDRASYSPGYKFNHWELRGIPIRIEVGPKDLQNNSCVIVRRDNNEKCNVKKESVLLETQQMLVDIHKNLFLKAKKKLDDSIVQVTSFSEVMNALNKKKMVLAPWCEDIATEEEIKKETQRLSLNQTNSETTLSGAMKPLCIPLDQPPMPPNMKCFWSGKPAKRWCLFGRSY

Lysine--tRNA ligase = Lysine--tRNA ligase (Plasmodium falciparum (isolate 3D7), UniProt Q8IDJ8); test: MMV: KRS recombinant Plasmodium falciparum Lysyl-tRNA-synthetase, assay with yeast tRNA, ATP, and lysine and 3 uM MMV malaria box compound, assay read out with kinase glo as % inhibition.
Sequence of Lysine--tRNA ligase (Q8IDJ8 whole entry): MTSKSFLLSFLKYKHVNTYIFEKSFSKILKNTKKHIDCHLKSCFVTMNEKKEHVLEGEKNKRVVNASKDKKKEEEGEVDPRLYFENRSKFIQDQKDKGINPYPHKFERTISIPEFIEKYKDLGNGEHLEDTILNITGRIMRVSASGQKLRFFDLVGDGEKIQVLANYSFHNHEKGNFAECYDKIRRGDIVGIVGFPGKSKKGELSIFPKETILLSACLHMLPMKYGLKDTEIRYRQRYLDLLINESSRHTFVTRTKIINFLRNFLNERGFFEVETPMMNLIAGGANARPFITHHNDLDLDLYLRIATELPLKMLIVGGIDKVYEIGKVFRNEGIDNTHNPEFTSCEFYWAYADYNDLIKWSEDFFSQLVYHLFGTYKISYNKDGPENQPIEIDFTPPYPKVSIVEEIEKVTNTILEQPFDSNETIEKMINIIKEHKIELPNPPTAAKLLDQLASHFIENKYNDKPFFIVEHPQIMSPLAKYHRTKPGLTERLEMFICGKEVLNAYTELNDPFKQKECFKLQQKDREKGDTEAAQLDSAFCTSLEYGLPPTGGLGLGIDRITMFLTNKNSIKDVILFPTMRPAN

Sequence of Calcium-dependent protein kinase 1 (P62344 whole entry): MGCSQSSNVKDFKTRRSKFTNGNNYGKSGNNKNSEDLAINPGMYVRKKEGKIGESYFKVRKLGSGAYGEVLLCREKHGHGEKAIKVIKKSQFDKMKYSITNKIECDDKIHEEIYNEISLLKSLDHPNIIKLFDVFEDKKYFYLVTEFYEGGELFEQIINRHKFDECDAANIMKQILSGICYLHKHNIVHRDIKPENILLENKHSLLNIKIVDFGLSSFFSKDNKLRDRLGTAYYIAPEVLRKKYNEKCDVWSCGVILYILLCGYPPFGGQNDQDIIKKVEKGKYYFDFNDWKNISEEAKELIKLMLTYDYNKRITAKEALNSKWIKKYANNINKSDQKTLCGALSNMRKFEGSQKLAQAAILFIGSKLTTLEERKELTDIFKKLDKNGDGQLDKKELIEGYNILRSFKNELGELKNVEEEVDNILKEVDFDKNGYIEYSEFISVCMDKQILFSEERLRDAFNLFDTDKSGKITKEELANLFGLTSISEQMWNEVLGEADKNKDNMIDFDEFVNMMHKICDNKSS

Structure (SMILES) | IC50 [1] [nM] | IC50 [2] [nM] | IC50 [3] [nM] | IC50 [4] [nM] | IC50 [5] [nM] | IC50 (Proline--tRNA ligase) [nM] | IC50 (Lysine--tRNA ligase) [nM]
O=C(Nc1ccc(Cl)c(Cl)c1)Nc1ccc(Cl)c(Cl)c1 | > 1000 | > 1000 | > 1000 | > 1000 | > 1000 | > 2500 | > 2500
N=c1n(CCN2CCCCC2)c2ccccc2n1CC(=O)c1ccc(Cl)c(Cl)c1 | > 1000 | > 1000 | > 1000 | > 1000 | > 1000 | > 2500 | > 2500
COc1ccc(-c2nc(N3CCN(C(=O)C4CCCCC4)CC3)c3c4c(sc3n2)CCCC4)cc1 | > 1000 | > 1000 | > 1000 | > 1000 | > 1000 | > 2500 | > 2500
O=C(NC1CCN(Cc2ccccc2)CC1)c1cc2nc(-c3ccc(Cl)s3)cc(C(F)(F)F)n2n1 | > 1000 | > 1000 | > 1000 | > 1000 | > 1000 | > 2500 | > 2500
COc1cc(C(=O)Nc2nc3c(cc4c5c(cccc53)CC4)s2)cc(OC)c1OC | > 1000 | > 1000 | > 1000 | > 1000 | > 1000 | > 2500 | > 2500
COc1ccc(CCN2C(=O)c3[nH]nc(-c4cc(Cl)c(C)cc4O)c3C2c2ccccc2F)cc1 (stereo not given) | > 1000 | > 1000 | > 1000 | > 1000 | > 1000 | > 2500 | > 2500
CCOc1ccc(N2C(N)=NC(N)=NC2(C)C)cc1 | > 1000 | > 1000 | > 1000 | > 1000 | > 1000 | > 2500 | > 2500
O=C(CCl)NCCOc1ccc(Cl)cc1Cl | > 1000 | > 1000 | > 1000 | > 1000 | > 1000 | > 2500 | > 2500
Oc1ccc(-c2nc(-c3ccc4oc5ccc(-c6[nH]c(-c7ccc(O)cc7)nc6-c6ccccc6)cc5c4c3)c(-c3ccccc3)[nH]2)cc1 | > 1000 | > 1000 | > 1000 | > 1000 | > 1000 | > 2500 | > 2500
COc1ccc(CCn2c(=N)c(C(=O)NCc3cccnc3)cc3c(=O)n4cccc(C)c4nc32)cc1 | > 1000 | > 1000 | > 1000 | > 1000 | > 1000 | > 2500 | > 2500
COc1ccc(Nc2cc(C)nc(NCc3ccccc3)n2)cc1 | > 1000 | > 1000 | > 1000 | > 1000 | > 1000 | > 2500 | > 2500
O=C1c2ccc3c4c(ccc(c24)C(=O)N1CCCCO)C(=O)N(CCCCO)C3=O | > 1000 | > 1000 | > 1000 | > 1000 | > 1000 | > 2500 | > 2500
CCOC(=O)c1cnc2ccc(OC)cc2c1Nc1ccc(N2CCN(C)CC2)cc1 | > 1000 | > 1000 | > 1000 | > 1000 | > 1000 | > 2500 | > 2500
COc1ccc(C(=O)C(CCC(CNC(C)(C)C)C(=O)c2ccc(OC)cc2)CNC(C)(C)C)cc1 (stereo not given) | > 1000 | > 1000 | > 1000 | > 1000 | > 1000 | > 2500 | > 2500
CN1C=C(c2ccc3ccccc3n2)C(c2c[nH]c3ccccc23)c2ccccc21 (stereo not given) | > 1000 | > 1000 | > 1000 | > 1000 | > 1000 | > 2500 | > 2500
OC(CNC1CCCCC1)Cn1c2ccc(I)cc2c2cc(I)ccc21 (stereo not given) | > 1000 | > 1000 | > 1000 | > 1000 | > 1000 | > 2500 | > 2500
COc1cc(CNCCc2ccc(Cl)cc2)cc(OC)c1O | > 1000 | > 1000 | > 1000 | > 1000 | > 1000 | > 2500 | > 2500
Oc1ccc(Br)cc1CN1CCN(Cc2ccc(Cl)cc2)CC1 | > 1000 | > 1000 | > 1000 | > 1000 | > 1000 | > 2500 | > 2500
CC(C)(C)c1ccc(C2CC3=Nc4ccccc4N(C(=O)c4ccccc4Cl)C(c4ccc(F)cc4)C3=C(O)C2)cc1 (stereo not given) | > 1000 | > 1000 | > 1000 | > 1000 | > 1000 | > 2500 | > 2500
CN1CCN(c2nc(Nc3ccc(O)cc3)nc3ccccc23)CC1 | > 1000 | > 1000 | > 1000 | > 1000 | > 1000 | > 2500 | > 2500
